The values below come from patent publication US10322112B2, “Compound combinations for attenuation of bacterial virulence” (priority 2016, dated 2019).

SMILES strings stand for the structures. Entries after “also recorded” stand apart in the source; their conditions may differ.

One assay concerns the target T1, LasR (Pseudomonas aeruginosa, UniProt P25084).
T1 construct: expressed in transfected cells; host or cells: E. coli JLD271
The experiment in a line: E. coli reporter gene primary agonism assay, LasR. It is filed as cell-based. Particulars: compounds at 100 mm; E. coli reporter strain JLD271/pJN105L/pSC11; 100 mm OdDHL = 100%; error ±10%. Here is the method:
(§1) Percent agonism of a given non-native inducer in a given bacterium and QS system receptor is measured with resepct to the maximum level of agonism (activation) by the native ligand of that receptor in the given bacterium. Percent antagonism is measured in competitive assays. The QS system of interest is activated to 100% with added or endogenous native ligand and the % antagonism of the non-native inducer is assessed with respect to 100% activation by the native inducer. The native ligand which induces LasR is OdDHL, which induces RhlR is BHL and which induces PqsR is PQS. As described herein and in cited references, assays for assessment of % agonism or % atangonism may be performed in E. coli systems (heterologous) or in the bacterium of interest, e.g., Pseudomonas. Dependent upon the assay system employed native ligand may be endogenously present or it may be exogenously supplied to the assay system. […] In antagonism assays using the native strains with functional QS systems, e.g., those of P. aeruginosa, endogenous native ligand is made in the system, so no native ligand is added. In native strains having one or more non-functional QS systems (mutant strains), e.g., P. aeruginosa mutants with non-functional QS systems, native ligand is added at about 10-100× the EC50 of the native ligand. In the agonism assay, native ligand is added as a control. Details of the assays are provided herein in Example 9 and in references cited in Example 9.
In general terms: Reporter assays use an easily measured gene product as a stand-in for the process of interest.

The next assay has as its system P. aeruginosa (PAO1). The assay is described as follows: P. aeruginosa growth curves. It is filed as cell-based, Pseudomonas aeruginosa. How it is done: FIGS. 2A-2D are wild-type P. aeruginosa growth curves in the presence of test compounds in various media. Related to FIGS. 3, 6A and 6B, 7A and 7B, and 12. (FIG. 2A) Growth curves in complete MOPS/Glutamate. (FIG. 2B) Growth curves in complete MOPS/Glucose. […] (FIG. 2D) Growth curves in SCFM2. P. aeruginosa (PAO1) was grown in a manner identical to the pyocyanin assay (see Experimental Procedures). At each time point, growth was measured by either reading OD600 (for MOPS media) or by serially diluting culture aliquots, plating on LB agar, and counting CFUs after overnight incubation at 37° C. (for SCFM2). Compound concentrations are 100 microM for compounds 1, 2, and 3 and 25 microM for compound 4 in all experiments unless noted otherwise. Error bars represent the standard error of at least two biological replicates (n≥2). BHL=N-butyryl L-homoserine lactone (Cayman Chemicals).
B. Bacterial Strains and Growth Conditions. Protocols for construction of genetic knockout strains are described below in Example 2. All reagents for bacterial culture were purchased from Sigma-Aldrich unless indicated otherwise. Bacteria were routinely cultured in Luria-Bertani broth (LB) at 37° C. with shaking at 200 rpm. Freezer stocks of bacterial strains were maintained at −80° C. in 1:1 LB:glycerol. Bacterial growth was routinely assessed by measuring the culture cell density according to absorbance at 600 nm (OD600341). Cell growth in simulated cystic fibrosis sputum medium (SCFM2) was determined by serially diluting assay cultures, plating on LB agar, and counting the number of colony forming units (CFU) appearing after overnight incubation at 37° C.

Another assay has as its target T2, RhlR (Pseudomonas aeruginosa, UniProt P54292).
T2 construct: expressed in transfected cells; host or cells: E. coli JLD271
The assay is described as follows: E. coli reporter gene primary agonism assay, RhlR. The format is cell-based. Particulars: compounds at 100 mm; 900 mm BHL = 100%; error ±10%; selected data reproduced from Welsh et al., 2015. How it is done: as §1

T1 sequence (P25084 whole entry): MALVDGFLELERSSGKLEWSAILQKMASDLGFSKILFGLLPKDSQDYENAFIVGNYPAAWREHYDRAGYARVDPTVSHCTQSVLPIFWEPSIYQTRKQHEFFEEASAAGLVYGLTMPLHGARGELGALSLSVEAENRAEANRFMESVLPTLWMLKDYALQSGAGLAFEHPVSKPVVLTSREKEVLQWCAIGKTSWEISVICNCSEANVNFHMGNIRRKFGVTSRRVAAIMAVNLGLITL
T2 sequence (P54292 whole entry): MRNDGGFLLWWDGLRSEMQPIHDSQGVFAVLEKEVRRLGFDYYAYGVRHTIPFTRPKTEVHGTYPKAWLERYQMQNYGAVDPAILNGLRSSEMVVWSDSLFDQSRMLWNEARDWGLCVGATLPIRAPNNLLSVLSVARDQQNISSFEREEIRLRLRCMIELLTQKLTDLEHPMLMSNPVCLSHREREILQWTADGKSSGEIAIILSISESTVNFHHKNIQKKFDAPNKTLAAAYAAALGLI

Regarding `O=C(N[C@H]1CCOC1=O)C1CCCC1` [compound 3], at LasR, the “Activation [%] LasR” value is recorded as −4%. Also, the “growth with other carbon sources” value in the assay on P. aeruginosa (PAO1) (complete MOPS Glucose or LB broth, 100 μM compound 3) is “did not observe growth effects with other carbon sources”. Also, the “growth in MOPS Glutamate” value in the assay with P. aeruginosa (PAO1) (complete MOPS Glutamate, 100 μM) was “growth delay; also recorded: delayed P. aeruginosa growth in MOPS Glutamate”. Besides, the “Activation [%] RhlR” value at RhlR is 91%.
